Reference: ChEMBL document CHEMBL5365535, “Selenoneine-inspired selenohydantoins with glutathione peroxidase-like activity” (Bioorg Med Chem, 2023)
The source made the active and inactive calls. No cut-off for these calls is given here.

Key:
[1] = Antioxidant activity assessed as DPPH radical scavenging activity incubated for 60 min by DPPH assay; type: functional
[2] = Antioxidant activity assessed as FRAP radical scavenging activity by measuring reduction of Fe3+ complex to Fe2+ analogue incubated for 5 mins by FRAP assay; type: functional; design: reference not given here
[3] = Glutathione peroxidase-like activity assessed as decrease in NADPH level at 20 uM in the presence of H2O2 and glutathione reductase by UV-VIS spectrophotometer analysis (reference value: 37 microM/min); type: physicochemical
[4] = Glutathione peroxidase-like activity assessed as decrease in NADPH level at 20 uM in the presence of cumene hydroperoxide and glutathione reductase by UV-VIS spectrophotometer analysis (reference value: 7 microM/min); type: physicochemical
[5] = Glutathione peroxidase-like activity assessed as time to reach completion of the linear part at 20 uM in presence of H2O2 by UV-VIS spectrophotometer analysis; type: physicochemical
[6] = Glutathione peroxidase-like activity assessed as time to reach completion of the linear part at 20 uM in presence of cumene hydroperoxide by UV-VIS spectrophotometer analysis; type: physicochemical
[7] = Cytotoxicity against HuAoSMC cells assessed as metabolic activity at below 100 uM incubated for 24 hrs by MTT assay; type: toxicity, cell-based; conditions: human, read-out: Activity
[8] = Antioxidant activity assessed as time to reach reaction completion; type: functional
[9] = Antioxidant activity assessed as anti-radical efficiency; type: functional
[10] = Antioxidant activity assessed as rate constant; type: functional
[11] = Cytotoxicity against HuAoSMC cells assessed as metabolic activity at 1 uM incubated for 24 hrs by MTT assay; type: toxicity, cell-based; conditions: human

O=c1c2ccccc2[se]n1-c1ccccc1 [EBSELEN]
EC50 [1]: Not Active | Activity [2]: inactive | Activity [3]: 75 µM/min | Activity [4]: 33 µM/min | Time [5]: 80 s | Time [6]: 187 s

O=C1NC(=[Se])NC1Cc1ccc(Br)cc1 (configuration not stated)
EC50 ([1]; read-out: EC50): 60 µM | Activity [2]: 180 µM | Activity [3]: 51 µM/min | Activity [4]: 17 µM/min | Time [5]: 127 s | Time [6]: 393 s | viability at 24 h, 100 µM [7]: > 70%

Cc1ccc(CC2NC(=[Se])NC2=O)cc1 (configuration not stated)
EC50 ([1]; read-out: EC50): 89 µM | Activity [2]: 116 µM | Activity [3]: 55 µM/min | Activity [4]: 18 µM/min | Time [5]: 107 s | Time [6]: 367 s | viability at 24 h, 100 µM [7]: > 70%

COc1ccc(CC2NC(=[Se])NC2=O)cc1 (configuration not stated)
EC50 ([1]; read-out: EC50): 38 µM | Activity [2]: 314 µM | TIME [8]: 0.3 h | Activity [9]: 1.4 10^-3/min/µM | K [10]: 1.2 s⁻¹ | Activity [3]: 49 µM/min | Activity [4]: 13 µM/min | Time [5]: 140 s | Time [6]: 467 s | viability at 24 h, 100 µM [7]: > 70%

NCC[Se][Se]CCN
Activity [3]: 53 µM/min | Activity [4]: 66 µM/min | Time [5]: 153 s | Time [6]: 93 s | Activity [11]: Toxic

O=C1NC(=[Se])NC1Cc1ccc(F)cc1 (configuration not stated)
EC50 ([1]; read-out: EC50): 39 µM | Activity [2]: 439 µM | TIME [8]: 0.4 h | Activity [9]: 1.05 10^-3/min/µM | K [10]: 0.89 s⁻¹ | Activity [3]: 57 µM/min | Activity [4]: 13 µM/min | Time [5]: 107 s | Time [6]: 460 s | viability at 24 h, 100 µM [7]: > 70%

O=C1O[C@H]([C@@H](O)CO)C(O)=C1O [ASCORBIC ACID]
EC50 ([1]; read-out: EC50): 17.8 µM | Activity [2]: 1630 µM

O=C1NC(=[Se])NC1Cc1ccccc1 (configuration not stated)
EC50 ([1]; read-out: EC50): 37 µM | Activity [2]: 219 µM | TIME [8]: 0.7 h | Activity [9]: 0.63 10^-3/min/µM | K [10]: 0.46 s⁻¹ | Activity [3]: 55 µM/min | Activity [4]: 18 µM/min | Time [5]: 113 s | Time [6]: 413 s | viability at 24 h, 100 µM [7]: > 70%

O=C1NC(=[Se])NC1Cc1cccc2ccccc12 (configuration not stated)
EC50 ([1]; read-out: EC50): 44 µM | Activity [2]: 271 µM | TIME [8]: 0.367 h | Activity [9]: 1 10^-3/min/µM | K [10]: 0.84 s⁻¹ | Activity [3]: 39 µM/min | Activity [4]: 18 µM/min | Time [5]: 187 s | Time [6]: 360 s | viability at 24 h, 100 µM [7]: > 70%

N[C@@H](CCC(=O)N[C@@H](CS)C(=O)NCC(=O)O)C(=O)O [GLUTATHIONE]
EC50 ([1]; read-out: EC50): 50 µM | Activity [2]: 94 µM | TIME [8]: 0.483 h | Activity [9]: 0.69 10^-3/min/µM | K [10]: 0.53 s⁻¹

O=C1NC(=[Se])NC1Cc1ccc(C(F)(F)F)cc1 (configuration not stated)
EC50 ([1]; read-out: EC50): 35 µM | Activity [2]: 363 µM | TIME [8]: 0.233 h | Activity [9]: 2.1 10^-3/min/µM | K [10]: 1.6 s⁻¹ | Activity [3]: 63 µM/min | Activity [4]: 32 µM/min | Time [5]: 100 s | Time [6]: 180 s | viability at 24 h, 100 µM [7]: > 70%

O=C1NC(=[Se])NC1Cc1ccc(Cl)cc1 (configuration not stated)
EC50 ([1]; read-out: EC50): 44 µM | Activity [2]: 421 µM | TIME [8]: 0.183 h | Activity [9]: 2.1 10^-3/min/µM | K [10]: 2.28 s⁻¹ | Activity [3]: 54 µM/min | Activity [4]: 27 µM/min | Time [5]: 113 s | Time [6]: 253 s | viability at 24 h, 100 µM [7]: > 70%
